Results published in PMC5643545, “A novel library of -arylketones as potential inhibitors of α-glucosidase: Their design, synthesis, in vitro and in vivo studies” (Scientific Reports, 2017).

Legend:
[1] = system: NA-STZ-diabetic mice; parameters: method as in PMID 20879744; conditions: 10, 31.2 and 56.2 mg/Kg; cited from earlier work
[2] = parameters: method as in doi:10.1016/S0065-7743(08)60834-9; conditions: cited from earlier work
[3] = target: T1, α-mannosidase (jack bean origin) (Canavalia ensiformis, UniProt C0HJB3); test: α-mannosidase inhibition assay, 96-well; type: biochemical; conditions: two independent assays, performed in duplicate; read-out: IC50s α-mannosidase (jack bean)
T1 construct: purchased Sigma Aldrich; host or cells: jack bean
T1 sequence (C0HJB3 1-981): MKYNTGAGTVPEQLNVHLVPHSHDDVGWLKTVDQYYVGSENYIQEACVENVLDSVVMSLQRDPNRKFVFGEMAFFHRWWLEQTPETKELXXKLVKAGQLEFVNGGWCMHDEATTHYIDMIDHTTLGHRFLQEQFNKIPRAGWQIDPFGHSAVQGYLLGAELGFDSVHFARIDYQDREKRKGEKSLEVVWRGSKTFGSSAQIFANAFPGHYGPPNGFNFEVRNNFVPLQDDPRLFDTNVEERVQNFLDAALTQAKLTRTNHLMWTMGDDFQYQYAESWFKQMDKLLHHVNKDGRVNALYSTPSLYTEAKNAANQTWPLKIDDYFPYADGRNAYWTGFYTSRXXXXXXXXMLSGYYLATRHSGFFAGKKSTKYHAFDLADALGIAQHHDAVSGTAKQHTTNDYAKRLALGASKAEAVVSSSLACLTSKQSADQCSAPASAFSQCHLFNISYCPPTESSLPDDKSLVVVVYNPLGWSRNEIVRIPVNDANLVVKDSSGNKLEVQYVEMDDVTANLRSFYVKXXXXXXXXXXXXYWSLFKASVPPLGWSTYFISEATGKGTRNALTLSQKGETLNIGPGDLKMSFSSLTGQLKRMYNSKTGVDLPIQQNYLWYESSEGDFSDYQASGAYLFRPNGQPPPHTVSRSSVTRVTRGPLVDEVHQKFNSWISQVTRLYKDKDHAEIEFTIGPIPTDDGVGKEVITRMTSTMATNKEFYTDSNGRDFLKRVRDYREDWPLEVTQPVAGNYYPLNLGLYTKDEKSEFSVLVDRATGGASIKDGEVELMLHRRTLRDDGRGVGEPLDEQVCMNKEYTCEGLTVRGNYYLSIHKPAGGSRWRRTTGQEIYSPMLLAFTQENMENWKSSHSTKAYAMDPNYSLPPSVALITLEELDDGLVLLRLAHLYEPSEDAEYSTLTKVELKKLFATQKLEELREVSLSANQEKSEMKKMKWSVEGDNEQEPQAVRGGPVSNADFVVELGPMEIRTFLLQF
Method: (§1) To assess the inhibitory effect and also the extent of selectivity our library was against α-glucosidase (yeast origin), α-fucosidase (bovine kidney origin) and α-mannosidase (jack bean origin) (in 96-well plates employing 4-nitrophenyl-α-D-glucopyranoside (PNPG) as substrate) (Table 1). The test compounds were dissolved and diluted in dimethyl sulfoxide (DMSO). They were placed in the plate along with the substrate and 10 mM of potassium […] buffer. They were then reacted with appropriate enzymes. After incubating the plates for ten minutes, the absorbance of the wells were measured at […]. The increase in […] (ΔA) was compared against the control i.e. buffer.
(§2) The inhibitory effect of the synthesized compounds on α-glucosidase (yeast origin), α-fucosidase (bovine kidney origin) and α-mannosidase (jack bean origin) inhibitory activity was determined in 96-well plates employing the substrate PNPG and 4-nitrophenyl α-D-glucopyranoside according to the procedure previously reported by Ferreres et al.[42]. […] The absorbance was measured spectrophotometrically at 430 nm (Spectra Max M5e micro plate reader). The increase in absorbance (ΔA) was compared with that of the control (buffer instead of test compound) to compute the inhibitory concentrations (IC50) which was determined from two independent assays, performed in duplicate. […]

[4] = target: T2, α-fucosidase (bovine kidney origin) (Bos taurus, UniProt Q2KIM0); test: α-fucosidase inhibition assay, 96-well; type: biochemical; conditions: two independent assays, performed in duplicate; read-out: IC50s α-fucosidase (bovine kidney)
T2 construct: purchased Sigma Aldrich; host or cells: bovine kidney
T2 sequence (Q2KIM0 23-468): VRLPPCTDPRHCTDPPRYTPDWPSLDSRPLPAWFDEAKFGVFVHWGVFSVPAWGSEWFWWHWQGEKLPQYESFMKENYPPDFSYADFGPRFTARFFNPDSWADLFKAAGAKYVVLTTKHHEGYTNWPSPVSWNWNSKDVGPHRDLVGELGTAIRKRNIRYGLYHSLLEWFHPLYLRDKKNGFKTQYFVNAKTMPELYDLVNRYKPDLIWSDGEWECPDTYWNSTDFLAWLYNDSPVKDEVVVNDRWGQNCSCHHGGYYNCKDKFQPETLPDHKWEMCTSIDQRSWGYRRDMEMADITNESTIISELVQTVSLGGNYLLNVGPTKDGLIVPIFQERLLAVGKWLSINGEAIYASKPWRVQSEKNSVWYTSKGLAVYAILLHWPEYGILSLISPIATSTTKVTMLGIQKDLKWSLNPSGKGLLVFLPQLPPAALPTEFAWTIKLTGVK
Method: as §1, §2

[5] = target: T3, α-glucosidase (yeast origin) (Saccharomyces cerevisiae, UniProt P53341); test: α-glucosidase (yeast) inhibition assay, PNPG substrate, 96-well; type: biochemical; conditions: two independent assays, performed in duplicate, 37 °C, 10 min, read-out: IC50s α-glucosidase (yeast)
T3 construct: purchased Sigma Aldrich
T3 sequence (P53341 whole entry): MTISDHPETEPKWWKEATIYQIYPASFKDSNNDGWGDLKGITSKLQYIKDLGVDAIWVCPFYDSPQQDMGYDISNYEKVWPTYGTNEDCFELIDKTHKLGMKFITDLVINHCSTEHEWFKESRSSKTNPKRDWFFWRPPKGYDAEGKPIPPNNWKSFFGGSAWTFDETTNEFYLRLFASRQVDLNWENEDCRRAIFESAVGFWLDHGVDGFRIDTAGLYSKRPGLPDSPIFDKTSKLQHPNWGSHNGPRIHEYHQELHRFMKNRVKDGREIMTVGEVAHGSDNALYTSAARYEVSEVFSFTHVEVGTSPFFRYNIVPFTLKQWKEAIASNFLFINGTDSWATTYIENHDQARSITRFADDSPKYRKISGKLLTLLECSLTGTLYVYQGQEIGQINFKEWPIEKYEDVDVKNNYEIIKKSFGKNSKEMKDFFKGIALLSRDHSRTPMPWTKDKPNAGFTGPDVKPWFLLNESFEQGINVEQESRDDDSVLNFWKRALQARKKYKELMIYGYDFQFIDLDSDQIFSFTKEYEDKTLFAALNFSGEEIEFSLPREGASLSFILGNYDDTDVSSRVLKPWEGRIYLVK
Method: The test compounds were dissolved and diluted in dimethyl sulfoxide (DMSO). They were placed in the plate along with the substrate and 10 mM of potassium sulphate buffer. They were then reacted with appropriate enzymes. After incubating the plates for ten minutes, the absorbance of the wells were measured at 430 nM. The increase in abundance (ΔA) was compared against the control i.e. buffer.
The inhibitory effect of the synthesized compounds on α-glucosidase (yeast origin), α-fucosidase (bovine kidney origin) and α-mannosidase (jack bean origin) inhibitory activity was determined in 96-well plates employing the substrate PNPG and 4-nitrophenyl α-D-glucopyranoside according to the procedure previously reported by Ferreres et al.[42]. Prior to use, all test compounds were solubilised in solvent, dimethylsulfoxide (DMSO), and then further diluted in DMSO to acquire the desired final maximum test concentration. […] The absorbance was measured spectrophotometrically at 430 nm (Spectra Max M5e micro plate reader). The increase in absorbance (ΔA) was compared with that of the control (buffer instead of test compound) to compute the inhibitory concentrations (IC50) which was determined from two independent assays, performed in duplicate.

CCCC=C1OC(=O)c2ccccc21 [compound 2]
blood glucose level [1]: lowered blood glucose level

CS(=O)(=O)c1ccc(-n2nc(C(F)(F)F)cc2-c2ccc(F)cc2)cc1 [SC-58125]
half-life [2]: ~ 200 h

O=C(Cc1ccccc1Br)c1ccccc1C(=O)NCCc1ccccc1 [3o]
IC50 [3]: > 50 µM | IC50 [4]: > 50 µM | IC50 [5]: 6.93 µM
